Results published in US20210246208A1, “COMBINED INHIBITION OF PD-1/PD-L1, TGFB AND DNA-PK FOR THE TREATMENT OF CANCER” (MERCK PATENT GMBH, priority 2018, published 2021).

Experiments:
[1] = test system: MC38 tumors; assay: M3814 and avelumab in murine colon tumor model MC38 (Example 1); format: in vivo, C57BL6/N mice; settings: M3814 150 mg/kg orally once daily, avelumab 400 μg/mouse i.v. days 3, 6, 9; for median time the tumors needed to double in size compared to initial volume at day 0: MC38 in C57BL6/N mice, Kaplan-Meyer evaluation; for T/C value: calculated at day 13
Source text: M3814 was applied daily started from day 0; Avelumab was applied on days 3, 6 and 9.
This model allows the use of immunocompetent mice, a necessary requirement to study the T-cell mediated antitumor effect of Avelumab. The experimental set up included the induction of MC38 tumors in C57BL6/N mice by injection of 1×10^6 tumor cells into the right flank of the animals. Tumor growth was followed over time by measuring length and width using a caliper. When tumors were established to an average size of 50-100 mm^3, mice were subdivided in 4 treatment groups with 10 animals each, and treatment started. This day was defined as day 0. Group 1 received vehicle treatment. Group 2 received M3814 orally once daily at 150 mg/kg in a volume of 10 ml/kg. Group 3 received avelumab intravenously once daily at 400 μg/mouse in a volume of 5 ml/kg on days 3, 6 and 9. Group 4 received M3814 orally once daily at 150 mg/kg in a volume of 10 ml/kg and avelumab intravenously once daily at 400 μg/mouse in a volume of 5 ml/kg on days 3, 6 and 9.

[2] = test system: EMT, fibrosis and VEGF pathway gene signatures in 4T1 tumor tissue; assay: RNAseq gene signatures of 4T1 tumor tissue (Example 3G); format: in vivo, BALB/c mice; settings: tumors harvested day 6
Experimental: Tumor tissues were harvested at Day 6 for RNAseq analysis. Gene expression signatures associated with (A) EMT, (B) fibrosis, and (C) VEGF pathway signatures are presented as box plots. Signature scores are defined as the mean log2 (fold change) among all genes in the signature.
RNAseq was performed with Qiagen targeted RNAseq panels consisting of 1278 total genes. EMT and fibrosis gene signatures were based on Qiagen gene lists and the VEGF pathway signature was based on the Biocarta VEGF pathway in Broad's Canonical Pathways. For these gene sets, signature scores are defined as the mean log2 (fold-change) among all genes in each gene signature. These were calculated by adding a pseudocount of 0.5 TPM to all genes and samples, determining the log2 (TPM), then subtracting the median log 2-TPM for each gene across all samples from the log2-TPM for each gene. Signature scores for gene sets are shown as boxplots.

[3] = target: DNA-PK (Homo sapiens, UniProt P78527); assay: Crystallographic and enzyme kinetics studies on DNA-PK; format: biochemical
Source text: DNA-PK, together with five additional protein factors (Ku70, Ku80, XRCC4, Ligase IV and Artemis) plays a critical role in the repair of DSB via NHEJ. Kinase activity of DNA-PK is essential for proper and timely DNA repair and the long-term survival of cancer cells.

[4] = test system: 4T1 mammary tumors; assay: 4T1 mammary tumor model, tumor volume and survival (Example 3A); settings: concurrent dosing; day 10; Trap 492 μg day 0, 2, 4; radiation 8 Gy day 0-3; M3814 150 mg/kg p.o. q.d. day 0-14
Experimental: BALB/c mice were inoculated intramuscularly (i.m.) with 0.5×10^5 4T1 cells (day −6) and treated (n=10 mice/group) with (A-C) isotype control (400 μg i.v.; day 0, 2, 4)+vehicle control (0.2 mL, orally [per os; p.o.], once daily [quaque die; q.d.], day 0-14), M7824 (492 μg i.v.; day 0, 2, 4), radiation (8 Gy, day 0-3), M3814 (150 mg/kg, p.o, q.d., day 0-14), M7824+RT, M7824+M3814, RT+M3814, or M7824+RT+M3814; or (D-F) isotype control (400 μg i.v.; day 4, 6, 8)+vehicle control (0.2 mL, (p.o.), (q.d.), day 0-14), M7824 (492 μg i.v.; day 4, 6, 8), radiation (8 Gy, day 0-3), M3814 (150 mg/kg, p.o, q.d., day 0-14), M7824+RT, M7824+M3814, RT+M3814, or M7824+RT+M3814. A-B, D-E, Tumor volumes were measured twice weekly and presented as (A, D) mean±SEM or (B, E) individual tumor volumes. P-values were calculated by two-way RM ANOVA with Tukey's post-test. C, F, For survival analysis, mice were sacrificed when tumor volumes reached ≈2000 mm^3 and median survival times were calculated.
For efficacy and survival studies, 4T1 cells, 0.5×10^5, were inoculated intramuscularly (i.m.) in the thigh of BALB/c mice on day −6. […]
Tumor sizes for the 4T1 and MC38 models were measured twice per week with digital calipers and recorded automatically using WinWedge software. Tumor volumes were calculated with the following formula: tumor volume (mm^3)=tumor length×width×height×0.5236. […]

[5] = 10 mg/kg dose; cited from earlier work

COc1ccc([C@@H](O)c2cc(-c3ncnc4cc(N5CCOCC5)ccc34)c(F)cc2Cl)nn1 [Compound M3814, (S)-[2-chloro-4-fluoro-5-(7-morpholin-4-yl-quinazolin-4-yl)-phenyl]-(6-methoxypyridazin-3-yl)-methanol]
median time the tumors needed to double in size compared to initial volume at day 0 [1]: 10 days
T/C value [1]: 47%
EMT signature score [2]: no effect on the EMT signature
fibrosis signature score [2]: significantly decreased the score
inhibition of DNA-PK [3]: potent and selective ATP-competitive inhibitor of DNA-PK
tumor volume [4]: did not significantly affect tumor growth

avelumab: fully human monoclonal antibody of the immunoglobulin (Ig) G1 isotype that selectively binds to PD-L1
median time the tumors needed to double in size compared to initial volume at day 0 [1]: 13 days
T/C value [1]: 60%
pharmacokinetics profile [5]: predictable pharmacokinetics profile
receptor occupancy [5]: excellent receptor occupancy
tolerability [5]: well tolerated
